Among the data in US20260124214A1, “HETEROCYCLIC COMPOUNDS FOR USE IN THE TREATMENT OF CANCER” (ARTIOS PHARMA LIMITED, priority 2021, published 2026) are Ki values, retold here.

Molecules are shown by their SMILES. Counter-ions that a name gives are not always drawn.

In this test the target is T1, Human Polθ polymerase domain (aa1820-2590) (Homo sapiens, UniProt O75417).
T1 construct: Human Polθ polymerase domain (aa1820-2590) was expressed in E. Coli; made in house; host or cells: E. coli
T1 sequence (O75417 1820-2590): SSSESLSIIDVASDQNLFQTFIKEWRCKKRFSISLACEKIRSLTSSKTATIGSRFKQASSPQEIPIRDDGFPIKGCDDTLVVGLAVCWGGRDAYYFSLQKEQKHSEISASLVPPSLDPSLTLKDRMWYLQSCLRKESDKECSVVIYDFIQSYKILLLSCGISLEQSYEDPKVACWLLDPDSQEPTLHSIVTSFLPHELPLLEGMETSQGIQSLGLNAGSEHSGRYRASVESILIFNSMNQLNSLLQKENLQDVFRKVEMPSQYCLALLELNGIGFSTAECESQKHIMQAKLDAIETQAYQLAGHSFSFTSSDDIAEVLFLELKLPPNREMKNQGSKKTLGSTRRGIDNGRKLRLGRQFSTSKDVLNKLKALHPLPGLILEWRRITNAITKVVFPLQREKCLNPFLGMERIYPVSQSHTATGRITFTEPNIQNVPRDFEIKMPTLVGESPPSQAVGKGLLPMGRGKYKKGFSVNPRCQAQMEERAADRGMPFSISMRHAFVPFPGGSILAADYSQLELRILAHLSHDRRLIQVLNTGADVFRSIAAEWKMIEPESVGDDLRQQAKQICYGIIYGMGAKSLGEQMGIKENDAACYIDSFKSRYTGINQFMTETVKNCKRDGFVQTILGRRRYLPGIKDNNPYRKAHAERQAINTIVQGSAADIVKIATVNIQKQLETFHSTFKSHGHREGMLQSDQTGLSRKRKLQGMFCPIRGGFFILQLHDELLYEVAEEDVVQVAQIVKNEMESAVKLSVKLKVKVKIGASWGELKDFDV
In words: Polθ Polymerase Domain WT KI Assay (PicoGreen). The format is biochemical. The settings on record: 100 nM DNA substrate, 0.156 nM Polθ, initial rates vs inhibitor concentration. In a few lines: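 E. coli-expressed human Polθ polymerase domain (aa1820-2590) on annealed DNA II Short/Long primer-template (1.2:1), in 25 mM Tris pH 7.5, NaCl, 5% glycerol, 0.01% Triton X-100, 0.1 mg/ml BSA, 1 mM DTT, 1% DMSO. EDTA-quenched timepoints to 180 min, PicoGreen fluorescence. Initial rates vs inhibitor concentration fitted four-parameter for KI.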
A word on the Ki: it is the equilibrium dissociation constant of an inhibitor or competing ligand from its target. For `Cc1cc(C(F)(F)F)cc(N2C(=O)C[C@@H]3CN(C[C@H]4CCNC4)c4c(Cl)cccc4N(C)C(=O)[C@H]32)n1` [Example 100, (3aR,11aS)-6-Chloro-10-methyl-1-(6-methyl-4-(trifluoromethyl)pyridin-2-yl)-5-(((S)-pyrrolidin-3-yl)methyl)-1,3a,4,5,10,11a-hexahydro-2H-benzo[b]pyrrolo[2,3-f][1,4]diazocine-2,11(3H)-dione hydrochloride], the Ki came to 1.75 nM. With `Cc1cc(C(F)(F)F)cc(N2C(=O)C[C@@H]3CN(Cc4nnc5n4CCNC5)c4c(Cl)cccc4N(C)C(=O)[C@H]32)n1` [Example 101, (3aR,11aS)-6-Chloro-10-methyl-1-(6-methyl-4-(trifluoromethyl)pyridin-2-yl)-5-((5,6,7,8-tetrahydro-[1,2,4]triazolo[4,3-a]pyrazin-3-yl)methyl)-1,3a,4,5,10,11a-hexahydro-2H-benzo[b]pyrrolo[2,3-f][1,4]diazocine-2,11(3H)-dione hydrochloride] the figure was 3.73 nM; with `Cc1cc(C(F)(F)F)cc(N2C(=O)C[C@@H]3CN(C[C@@H]4CCNC4)c4c(C)cccc4N(C)C(=O)[C@H]32)n1` [Example 103, (3aR,11aS)-6,10-Dimethyl-1-(6-methyl-4-(trifluoromethyl)pyridin-2-yl)-5-(((R)-pyrrolidin-3-yl)methyl)-1,3a,4,5,10,11a-hexahydro-2H-benzo[b]pyrrolo[2,3-f][1,4]diazocine-2,11(3H)-dione hydrochloride], 2.43 nM. Next, `Cc1cc(C(F)(F)F)cc(N2C(=O)C[C@@H]3CN(C[C@H]4CCNC4)c4c(C)cccc4N(C)C(=O)[C@H]32)n1` [Example 104, (3aR,11aS)-6,10-Dimethyl-1-(6-methyl-4-(trifluoromethyl)pyridin-2-yl)-5-(((S)-pyrrolidin-3-yl)methyl)-1,3a,4,5,10,11a-hexahydro-2H-benzo[b]pyrrolo[2,3-f][1,4]diazocine-2,11(3H)-dione hydrochloride]: 2.95 nM. `Cc1cc(C(F)(F)F)cc(N2C(=O)C[C@@H]3CN(CC4CCCNC4)c4c(Cl)cccc4N(C)C(=O)[C@H]32)n1` (stereo partly drawn) [Example 110, (3aR,11aS)-6-Chloro-10-methyl-1-(6-methyl-4-(trifluoromethyl)pyridin-2-yl)-5-(piperidin-3-ylmethyl)-1,3a,4,5,10,11a-hexahydro-2H-benzo[b]pyrrolo[2,3-f][1,4]diazocine-2,11(3H)-dione] registered a Ki of 2.08 nM. Next, `Cc1cc(C(F)(F)F)cc(N2C(=O)C[C@@H]3CN(CC[C@H]4CCNC4)c4c(Cl)cccc4N(C)C(=O)[C@H]32)n1` [Example 111, (3aR,11aS)-6-Chloro-10-methyl-1-(6-methyl-4-(trifluoromethyl)pyridin-2-yl)-5-(2-((R)-pyrrolidin-3-yl)ethyl)-1,3a,4,5,10,11a-hexahydro-2H-benzo[b]pyrrolo[2,3-f][1,4]diazocine-2,11(3H)-dione hydrochloride]: 0.619 nM; `Cc1cc(C(F)(F)F)cc(N2C(=O)C[C@@H]3CN(Cc4cc5n(n4)CCN(C)C5)c4c(C)cccc4N(C)C(=O)[C@H]32)n1` [Example 113, (3aR,11aS)-6,10-Dimethyl-5-((5-methyl-4,5,6,7-tetrahydropyrazolo[1,5-a]pyrazin-2-yl)methyl)-1-(6-methyl-4-(trifluoromethyl)pyridin-2-yl)-1,3a,4,5,10,11a-hexahydro-2H-benzo[b]pyrrolo[2,3-f][1,4]diazocine-2,11(3H)-dione]: 0.237 nM; `Cc1cc(C(F)(F)F)cc(N2C(=O)C[C@@H]3CN(Cc4ccncc4)c4c(C)cccc4N(C)C(=O)[C@H]32)n1` [Example 114, (3aR,11aS)-6,10-Dimethyl-1-(6-methyl-4-(trifluoromethyl)pyridin-2-yl)-5-(pyridin-4-ylmethyl)-1,3a,4,5,10,11a-hexahydro-2H-benzo[b]pyrrolo[2,3-f][1,4]diazocine-2,11(3H)-dione]: 1.64 nM.

The compound `Cc1cc(C(F)(F)F)cc(N2C(=O)C[C@@H]3CN(Cc4cccnc4)c4c(C)cccc4N(C)C(=O)[C@H]32)n1` [Example 115, (3aR,11aS)-6,10-Dimethyl-1-(6-methyl-4-(trifluoromethyl)pyridin-2-yl)-5-(pyridin-3-ylmethyl)-1,3a,4,5,10,11a-hexahydro-2H-benzo[b]pyrrolo[2,3-f][1,4]diazocine-2,11(3H)-dione] gave a Ki of 1.08 nM. For the compound `Cc1cc(C(F)(F)F)cc(N2C(=O)C[C@@H]3CN(Cc4cn5c(n4)CN(C)CC5)c4c(C)cccc4N(C)C(=O)[C@H]32)n1` [Example 121, (3aR,11aS)-6,10-Dimethyl-1-(6-methyl-4-(trifluoromethyl)pyridin-2-yl)-5-((7-methyl-5,6,7,8-tetrahydroimidazo[1,2-a]pyrazin-2-yl)methyl)-1,3a,4,5,10,11a-hexahydro-2H-benzo[b]pyrrolo[2,3-f][1,4]diazocine-2,11(3H)-dione], the Ki was 0.258 nM. With `Cc1cc(C(F)(F)F)cc(N2C(=O)C[C@@H]3CN(Cc4ccc5c(c4)CCN(C)C5)c4c(F)cccc4N(C)C(=O)[C@H]32)n1` [Example 122, (3aR,11aS)-6-Fluoro-10-methyl-5-((2-methyl-1,2,3,4-tetrahydroisoquinolin-6-yl)methyl)-1-(6-methyl-4-(trifluoromethyl)pyridin-2-yl)-1,3a,4,5,10,11a-hexahydro-2H-benzo[b]pyrrolo[2,3-f][1,4]diazocine-2,11(3H)-dione] the figure was 1.94 nM. For `Cc1cc(C(F)(F)F)cc(N2C(=O)C[C@@H]3CN(Cc4ccc5c(c4)CN(C)C5)c4c(F)cccc4N(C)C(=O)[C@H]32)n1` [Example 123, (3aR,11aS)-6-Fluoro-10-methyl-1-(6-methyl-4-(trifluoromethyl)pyridin-2-yl)-5-((2-methylisoindolin-5-yl)methyl)-1,3a,4,5,10,11a-hexahydro-2H-benzo[b]pyrrolo[2,3-f][1,4]diazocine-2,11(3H)-dione hydrochloride], the Ki worked out at 2.2 nM. Compound `Cc1cc(C(F)(F)F)cc(N2C(=O)C[C@@H]3CN(Cc4cccc(C5CN(C)C5)c4)c4c(F)cccc4N(C)C(=O)[C@H]32)n1` [Example 124, (3aR,11aS)-6-Fluoro-10-methyl-1-(6-methyl-4-(trifluoromethyl)pyridin-2-yl)-5-(3-(1-methylazetidin-3-yl)benzyl)-1,3a,4,5,10,11a-hexahydro-2H-benzo[b]pyrrolo[2,3-f][1,4]diazocine-2,11(3H)-dione] displayed a Ki of 4.26 nM. In turn, `Cc1cc(C(F)(F)F)cc(N2C(=O)C[C@@H]3CN(CCCO)c4c(F)cccc4N(C)C(=O)[C@H]32)n1` [Example 127, (3aR,11aS)-6-Fluoro-5-(3-hydroxypropyl)-10-methyl-1-(6-methyl-4-(trifluoromethyl)pyridin-2-yl)-1,3a,4,5,10,11a-hexahydro-2H-benzo[b]pyrrolo[2,3-f][1,4]diazocine-2,11(3H)-dione] had a Ki of 7.21 nM. With `Cc1cc(C(F)(F)F)cc(N2C(=O)C[C@@H]3CN(CCCN(C)C)c4c(C)cccc4N(C)C(=O)[C@H]32)n1` [Example 128, (3aR,11aS)-5-(3-(Dimethylamino)propyl)-6,10-dimethyl-1-(6-methyl-4-(trifluoromethyl)pyridin-2-yl)-1,3a,4,5,10,11a-hexahydro-2H-benzo[b]pyrrolo[2,3-f][1,4]diazocine-2,11(3H)-dione] the figure was 1.39 nM; with `Cc1cc(C(F)(F)F)cc(N2C(=O)C[C@@H]3CN(CCCN4CCN(C)CC4)c4c(Cl)cccc4N(C)C(=O)[C@H]32)n1` [Example 129, (3aR,11aS)-6-Chloro-10-methyl-1-(6-methyl-4-(trifluoromethyl)pyridin-2-yl)-5-(3-(4-methylpiperazin-1-yl)propyl)-1,3a,4,5,10,11a-hexahydro-2H-benzo[b]pyrrolo[2,3-f][1,4]diazocine-2,11(3H)-dione], 1.23 nM; with `Cc1cc(C(F)(F)F)cc(N2C(=O)C[C@@H]3CN(c4ccccn4)c4c(F)cccc4N(C)C(=O)[C@H]32)n1` [Example 134, (3aR,11aS)-6-Fluoro-10-methyl-1-(6-methyl-4-(trifluoromethyl)pyridin-2-yl)-5-(pyridin-2-yl)-1,3a,4,5,10,11a-hexahydro-2H-benzo[b]pyrrolo[2,3-f][1,4]diazocine-2,11(3H)-dione], 104 nM. Next, `Cc1cc(C(F)(F)F)cc(N2C(=O)C[C@@H]3CN(CCCN(C)C)c4c(Cl)cccc4N(C)C(=O)[C@H]32)n1` [Example 135, (3aR,11aS)-6-Chloro-5-(3-(dimethylamino)propyl)-10-methyl-1-(6-methyl-4-(trifluoromethyl)pyridin-2-yl)-1,3a,4,5,10,11a-hexahydro-2H-benzo[b]pyrrolo[2,3-f][1,4]diazocine-2,11(3H)-dione]: 3.49 nM.
